Source: patent US20250049758A1, “Danegaptide Formulation for Application in the Eye” (Breye Therapeutics APS, priority 2021, published 2025)
Entries after “also recorded” stand apart in the source; their conditions may differ. Counter-ions that a name gives are not always drawn.

How the values were obtained:
Water solubility = format: physicochemical
Excerpt: Danegaptide as a HCL salt is water-soluble. To investigate the viability of this drug, a melt extrusion formulation strategy was chosen, and six different formulations based on various viable excipients feasible for the melt extrusion process were manufactured with approximately 20% drug load.

[1] = Dissolution testing of prototype formulations in 0.9% NaCl at 37° C., HPLC; format: physicochemical; conditions: prolonged storage of the dosage form at 37° C.
Description: Described below is the dissolution behavior of Danegaptide when formulated in 6 different melt extrusion formulations. The formulations were manufactured with a drug load of about 20%. The formulations were exposed to physiological salt solutions at 37° C. and stored for several months. The media was changed regularly and analyzed for content of Danegaptide.
The dissolution process was investigated for each of the 6 manufactured prototypes by inserting the prototypes into a 0.9% NaCl solution and test the dissolution of Danegaptide over time by HPLC. The experiment was conducted over 170 days.
Fifteen dose units of each prototype was weighed and were wrapped into a permeable filter bag consisting of empty triangular tea bags made of polymeric material, with a mesh size of less than 0.5 μm. The bags were each inserted into glass vials and 10 ml 0.9% NaCl solution media were added to each vial. The vials were placed in a water bath at 37° C. At regular intervals the media was drained and 10 ml new media was added and the vials were returned to the water bath. […] One day delivery periods were also tested several times during the dissolution period. […] In addition, an informative impurity profile was recorded. In relation to this, the pH value of each collected media sample was determined. […]
The Danegaptide content was quantified to a Danegaptide reference substance. […]

Toxicology program = format: in vivo; conditions: high concentration levels administered locally in selected tissues or systemically
Excerpt: However, the protective effects of danegaptide from stress-induced cell-cell uncoupling or cellular loss may be diminished or lost at higher concentrations of danegaptide.

[2] = system: retinal endothelial cell coupling; conditions: in vitro; cited from earlier work
vascular leakage = conditions: cited from earlier work
Gap-Junction coupling = assay: In vitro and in vivo pre-clinical studies, Gap-Junction coupling under stressed conditions
retinal vascular cells = conditions: cited from earlier work

In the case of `NCC(=O)N1C[C@H](NC(=O)c2ccccc2)C[C@H]1C(=O)O` [Danegaptide as a HCL salt], the Water solubility (Water solubility) was “water-soluble”.
For `NCC(=O)N1C[C@H](NC(=O)c2ccccc2)C[C@H]1C(=O)O` [Danegaptide, (2S,4R)-1-(2-aminoacetyl)-4-benzoylamino-pyrrolidine-2-carboxylic acid], the “Degradation of Danegaptide during the dissolution period (HPLC impurity profile)” value [1] is listed as “probably only happened to a smaller extent; also recorded: did not indicate a significant degradation pattern”, the Toxicity (Toxicology program) is listed as “no toxicity concerns” and the “Concentration giving optimal protection from high-glucose induced cell-cell uncoupling” value [2] is listed as 50 to 100 nM. For the same molecule, the Vascular leakage (vascular leakage) was “reduce vascular leakage”, the “Optimal concentration in the target tissue, such as the retina, to maintain Gap-Junction coupling” value (Gap-Junction coupling) was 50 to 100 nM and the “Cell-cell GJ uncoupling” value (retinal vascular cells; high glucose condition) was “prevent cell-cell GJ uncoupling”. For the same molecule, the High glucose-induced apoptosis (retinal vascular cells; retinal vascular cells) was “prevent high glucose-induced apoptosis”.
